Measurements: PubChem BioAssay (NCI)
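96-well plates; 48 h exposure; 5 concentrations. Endpoints by linear interpolation between flanking doses. Not reached: highest tested concentration assigned. GI50 is the concentration that inhibits growth by half. At the TGI there is no net growth.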

Assays:
Test in all cases: NCI anticancer screen, dose series, 48 h
[1] = test system: KM12 colon
[2] = test system: MCF7 breast
[3] = test system: SF-295 CNS
[4] = test system: A498 renal
[5] = test system: HCT-15 colon
[6] = test system: MDA-MB-231 breast
[7] = test system: HCT-116 colon
[8] = test system: SN12C renal
[9] = test system: UO-31 renal
[10] = test system: CCRF-CEM leukemia

SMILES | TGI [1] [µM] | TGI [2] [µM] | TGI [3] [µM] | TGI [4] [µM] | TGI [5] [µM] | TGI [6] [µM] | TGI [7] [µM] | TGI [8] [µM] | TGI [9] [µM] | TGI [10] [µM] | GI50 [1] [µM] | GI50 [3] [µM] | GI50 [10] [µM] | GI50 [6] [µM] | GI50 [9] [µM] | GI50 [4] [µM] | GI50 [5] [µM] | GI50 [8] [µM]
COc1ccccc1/C=C1\Sc2scc(-c3cccc([N+](=O)[O-])c3)[n+]2C1=O | 25.2 | 10.3 | 40.2 | 48.9 | 5.92 | 19.3 | 16.7 | 11.5 | 9.86 | – | – | – | – | – | – | – | – | –
CSC(SC)=C1C(=O)NN=C1C | > 100 | > 100 | > 100 | – | > 100 | > 100 | > 100 | > 100 | > 100 | > 100 | – | – | – | – | – | – | – | –
S=C(NNC1=NCCCN1)Nc1ccccc1 | > 100 | > 100 | > 100 | > 100 | > 100 | – | > 100 | – | > 100 | > 100 | – | – | – | – | – | – | – | –
CSCCC(NCc1c(O)ccc2ccc(=O)oc12)C(=O)O (stereo not drawn) | > 100 | > 100 | > 100 | – | > 100 | > 100 | > 100 | > 100 | > 100 | > 100 | – | – | – | – | – | – | – | –
O=C1/C(=C\c2ccc([N+](=O)[O-])cc2)Sc2scc(-c3ccc(O)c(O)c3)[n+]21 | 27.6 | 15.3 | 31.8 | – | 14.1 | 66.9 | 75.2 | 50 | 22.3 | 16.3 | – | – | – | – | – | – | – | –
Cc1nc2c(o1)C(=O)c1ccccc1C2=NC1CCCCC1N (stereo not drawn) | 3.18 | 0.9 | – | 3.12 | 1.84 | 2.75 | 0.729 | 1.16 | 3 | 1.28 | – | – | – | – | – | – | – | –
COc1cc2cc(Oc3ccc(NC(=O)Nc4ccc(F)c(C(F)(F)F)c4)cc3)c(C)nc2cc1OCCN1CCCCC1 | 3.3 | – | 3.29 | – | – | 3.19 | – | – | 2.73 | 4.01 | 1.77 | 1.8 | 1.57 | 1.67 | 1.41 | – | – | –
O=C1NCC2(CCNCC2)N1c1ccccc1 | > 100 | > 100 | > 100 | > 100 | > 100 | > 100 | > 100 | > 100 | – | > 100 | – | – | – | – | – | – | – | –
O=C1C(C(O)(C(F)(F)Cl)C(F)(F)Cl)CCC1C(O)(C(F)(F)Cl)C(F)(F)Cl (stereo not drawn) | > 10 | > 10 | 5.99 | > 10 | > 10 | > 10 | 5.71 | > 10 | – | – | – | – | – | – | – | – | – | –
Cc1ccc(-c2sc(-c3ccc(C)cc3)c3c2C2CCC3C2)cc1 | > 50 | – | > 50 | > 50 | > 50 | > 50 | > 50 | > 50 | > 50 | > 50 | – | – | – | – | – | – | – | –
CCOc1ccc(N2C(=O)C3c4[nH]c5ccccc5c4C4CCC(C(C)(C)C)CC4C3C2=O)cc1 (stereo not drawn) | – | – | > 100 | > 100 | > 100 | – | > 100 | > 100 | > 100 | > 100 | – | – | – | – | – | – | – | –
CCOC(=O)N1CCN(Cc2cc(=O)n3cc(C)ccc3n2)CC1 | > 100 | > 100 | > 100 | – | > 100 | > 100 | > 100 | > 100 | > 100 | > 100 | – | – | – | – | – | – | – | –
O=C(O)CCC(NC(=O)c1ccc(Nc2nc3ccccc3nc2C(=O)O)cc1)C(=O)O (stereo not drawn) | > 100 | > 100 | > 100 | – | – | > 100 | > 100 | > 100 | > 100 | > 100 | – | – | – | – | – | – | – | –
CNNC1=NS(=O)(=O)c2cc(C)c(Cl)cc2S1 | > 10 | – | > 10 | > 10 | > 10 | > 10 | > 10 | > 10 | 0.0901 | > 10 | – | – | – | – | – | – | – | –
N=C(/C=C/c1ccc(-c2cn3cc(/C=C/C(=N)N4CCCC4)ccc3n2)cc1)N1CCCC1 | > 100 | > 100 | > 100 | > 100 | > 100 | > 100 | > 100 | > 100 | > 100 | – | – | – | – | – | – | – | – | –
CCOC(=O)c1ncoc1[C@H]1COC(C)(C)O1 | – | – | > 100 | – | > 100 | – | > 100 | > 100 | > 100 | > 100 | – | – | – | – | – | – | – | –
O=C1C=C(N2CCCC2)C=C(N2CCCC2)C1 | > 100 | – | > 100 | – | > 100 | – | > 100 | – | > 100 | > 100 | – | – | – | – | – | – | – | –
CCN(CC)CCNC(=O)c1ccc([N+](=O)[O-])cc1OC | > 100 | – | > 100 | > 100 | > 100 | – | > 100 | > 100 | > 100 | > 100 | – | – | – | – | – | – | – | –

SMILES | TGI [1] [µM] | TGI [2] [µM] | TGI [3] [µM] | TGI [4] [µM] | TGI [5] [µM] | TGI [6] [µM] | TGI [7] [µM] | TGI [8] [µM] | TGI [9] [µM] | TGI [10] [µM] | GI50 [1] [µM] | GI50 [3] [µM] | GI50 [10] [µM] | GI50 [6] [µM] | GI50 [9] [µM] | GI50 [4] [µM] | GI50 [5] [µM] | GI50 [8] [µM]
CCOc1cc(/C=N\N(C)C)cc(/C=N\N(C)C)c1O | > 100 | – | > 100 | > 100 | > 100 | > 100 | > 100 | > 100 | > 100 | > 100 | – | – | – | – | – | – | – | –
CC(=O)Oc1ccccc1[C@H]1CC(=O)C[C@H](c2ccccc2OC(C)=O)C12C(=O)c1ccccc1C2=O | > 100 | – | > 100 | > 100 | > 100 | 94.6 | 88.9 | > 100 | > 100 | > 100 | – | – | – | – | – | – | – | –
O=C(NCCN1C(=O)CN=C(c2ccc(Cl)cc2)c2cc(Cl)ccc21)OCc1ccccc1 | 32.4 | – | 29.4 | 24.5 | 44.6 | 32.3 | 24.8 | 28.7 | 24.7 | 63.1 | – | – | – | – | – | – | – | –
O=c1[nH]c2cc(C(F)(F)F)ccc2nc1Cc1ccccc1 | > 100 | > 100 | > 100 | > 100 | > 100 | 83.6 | > 100 | – | > 100 | > 100 | – | – | – | – | – | – | – | –
Cc1cc(S(N)(=O)=O)c(SCc2nc(N)nc(N(C)C)n2)cc1Cl | > 10 | > 10 | > 10 | > 10 | > 10 | – | > 10 | > 10 | > 10 | > 10 | – | – | – | – | – | – | – | –
O=C1Nc2cccc3ncn(c23)C2=C1CCCC2 | > 100 | – | > 100 | – | > 100 | – | > 100 | > 100 | > 100 | > 100 | – | – | – | – | – | – | – | –
Cc1c(C(=O)CSc2nc3ccc([N+](=O)[O-])cc3[nH]2)c(=O)n(-c2ccccc2)n1C | > 100 | – | > 100 | > 100 | > 100 | – | > 100 | > 100 | > 100 | > 100 | – | – | – | – | – | – | – | –
COc1cc([C@@H]2c3cc4c(cc3[C@H](OC3OC5COC(C(C)C)OC5C(O)C3O)C3COC(=O)[C@@H]32)OCO4)cc(OC)c1O (stereo partly drawn) | 39.6 | 16 | 21.7 | 22.8 | 25.9 | 28.8 | 13.5 | – | 22.3 | > 100 | – | – | – | – | – | – | – | –
CC(C)C1CC=NN1C(=O)OC(C)(C)C (stereo not drawn) | > 100 | > 100 | > 100 | > 100 | > 100 | – | > 100 | > 100 | > 100 | > 100 | – | – | – | – | – | – | – | –
O=C1CC2CC=C[C@H]3c4cc5c(cc4C(=O)N1C23)OCO5 (stereo partly drawn) | > 50 | – | > 50 | – | > 50 | – | > 50 | > 50 | > 50 | > 50 | – | – | – | – | – | – | – | –
COc1cc(C2CC(c3cccc(Nc4ccncc4)c3)=NN2c2cc(Cl)cc(Cl)c2)cc(OC)c1OC (stereo not drawn) | 3.1 | – | – | 4.22 | 3.43 | – | – | 3.14 | 2.79 | – | 1.65 | – | – | – | 1.44 | 1.27 | 1.79 | 1.66
CCOC(=O)c1cccc(NC(=O)CBr)c1 | 3.58 | 3.3 | 14.6 | 14.7 | 3.66 | 3.51 | 1.88 | 0.907 | 1.96 | – | – | – | – | – | – | – | – | –
COc1ccc(NC(=O)CC(=O)n2nc(C)c(N=Nc3ccc(C)c(C)c3)c2C)cc1 | > 100 | > 100 | > 100 | > 100 | – | > 100 | > 100 | > 100 | 54.8 | > 100 | – | – | – | – | – | – | – | –
ClC(Cl)(Cl)C1CCOC1n1nc2ccccc2n1 (stereo not drawn) | – | > 100 | > 100 | > 100 | > 100 | > 100 | > 100 | > 100 | – | > 100 | – | – | – | – | – | – | – | –
Cc1cc2nc(N3C(=O)/C(=C/c4cccc([N+](=O)[O-])c4)N=C3c3ccccc3)sc2cc1C | > 100 | 43.9 | > 100 | – | > 100 | > 100 | > 100 | > 100 | > 100 | 23.4 | – | – | – | – | – | – | – | –
O=C(O)C(CS)NCc1c2ccccc2[n+]([O-])c2ccccc12 (stereo not drawn) | > 100 | – | > 100 | > 100 | > 100 | – | 62.4 | > 100 | 66.3 | 80.8 | – | – | – | – | – | – | – | –
COc1cc(N(CCC#N)CCC#N)ccc1/C(N=Nc1ccc(C)cc1)=N/NC(=O)c1cc(Br)ccc1O | 44.9 | > 100 | > 100 | – | 33 | 55.2 | 41.2 | 54.9 | 60.3 | 25.2 | – | – | – | – | – | – | – | –
